We go through 20 molecules from ChEMBL document CHEMBL3352611, “Deconstruction of 6,7-dimethoxy-1,2,3,4-tetrahydroisoquinoline moiety to separate P-glycoprotein (P-gp) activity from σ2 receptor affinity in mixed P-gp/σ2 receptor agents” (Eur J Med Chem, 2015).

For orientation: Ki means a dissociation constant, usually derived from enzyme kinetics or from competition with a known ligand. As usually defined, the EC50 is the concentration that produces a half-maximal response. For orientation: inhibition means the change of the read-out against control, counted positive when it falls. Low readings indicate a weak effect, high ones a strong effect.

The target in assay [1] is Sigma non-opioid intracellular receptor 1 (Cavia porcellus, UniProt Q60492). Put plainly: Displacement of (+)-[3H]-pentazocine from sigma1 recetor in guinea-pig brain membranes without cerebellum by radioligand binding assay. Format: cell membranes, Membrane.
The nature of assay [2]: Displacement of [3H]-DTG from sigma2 receptor in rat liver membranes in presence of […] (+)-pentazocine by radioligand binding assay. Format: cell membranes, Membrane. Background: In a radioligand displacement assay an active substance lowers the binding of a labelled ligand.
The nature of assay [3]: Selectivity index, ratio of Ki for sigma1 recetor in guinea-pig brain membranes to Ki for sigma2 receptor in rat liver membranes. Format: cell membranes.
For assay [4], the target named is ATP-dependent translocase ABCB1 (Homo sapiens, UniProt P08183). Kind of assay: Activity at MDR1 (unknown origin) expressed in MDCK-MDR1 cells by Calcein-AM assay. It is filed as cell-based.
For assay [5], the target named is Sigma non-opioid intracellular receptor 1 (Cavia porcellus) (UniProt Q60492). The settings on record: Brain, Membrane, 10 pM.
Sequence of Sigma non-opioid intracellular receptor 1 (Cavia porcellus) (Q60492 whole entry): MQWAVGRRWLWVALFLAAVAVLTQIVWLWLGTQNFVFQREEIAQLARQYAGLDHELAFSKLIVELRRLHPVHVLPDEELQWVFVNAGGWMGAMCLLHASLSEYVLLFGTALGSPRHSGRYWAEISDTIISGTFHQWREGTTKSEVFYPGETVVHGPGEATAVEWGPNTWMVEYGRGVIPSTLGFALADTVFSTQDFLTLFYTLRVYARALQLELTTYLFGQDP

Sequence of Sigma non-opioid intracellular receptor 1 (Q60492 whole entry): as above
Sequence of ATP-dependent translocase ABCB1 (P08183 whole entry): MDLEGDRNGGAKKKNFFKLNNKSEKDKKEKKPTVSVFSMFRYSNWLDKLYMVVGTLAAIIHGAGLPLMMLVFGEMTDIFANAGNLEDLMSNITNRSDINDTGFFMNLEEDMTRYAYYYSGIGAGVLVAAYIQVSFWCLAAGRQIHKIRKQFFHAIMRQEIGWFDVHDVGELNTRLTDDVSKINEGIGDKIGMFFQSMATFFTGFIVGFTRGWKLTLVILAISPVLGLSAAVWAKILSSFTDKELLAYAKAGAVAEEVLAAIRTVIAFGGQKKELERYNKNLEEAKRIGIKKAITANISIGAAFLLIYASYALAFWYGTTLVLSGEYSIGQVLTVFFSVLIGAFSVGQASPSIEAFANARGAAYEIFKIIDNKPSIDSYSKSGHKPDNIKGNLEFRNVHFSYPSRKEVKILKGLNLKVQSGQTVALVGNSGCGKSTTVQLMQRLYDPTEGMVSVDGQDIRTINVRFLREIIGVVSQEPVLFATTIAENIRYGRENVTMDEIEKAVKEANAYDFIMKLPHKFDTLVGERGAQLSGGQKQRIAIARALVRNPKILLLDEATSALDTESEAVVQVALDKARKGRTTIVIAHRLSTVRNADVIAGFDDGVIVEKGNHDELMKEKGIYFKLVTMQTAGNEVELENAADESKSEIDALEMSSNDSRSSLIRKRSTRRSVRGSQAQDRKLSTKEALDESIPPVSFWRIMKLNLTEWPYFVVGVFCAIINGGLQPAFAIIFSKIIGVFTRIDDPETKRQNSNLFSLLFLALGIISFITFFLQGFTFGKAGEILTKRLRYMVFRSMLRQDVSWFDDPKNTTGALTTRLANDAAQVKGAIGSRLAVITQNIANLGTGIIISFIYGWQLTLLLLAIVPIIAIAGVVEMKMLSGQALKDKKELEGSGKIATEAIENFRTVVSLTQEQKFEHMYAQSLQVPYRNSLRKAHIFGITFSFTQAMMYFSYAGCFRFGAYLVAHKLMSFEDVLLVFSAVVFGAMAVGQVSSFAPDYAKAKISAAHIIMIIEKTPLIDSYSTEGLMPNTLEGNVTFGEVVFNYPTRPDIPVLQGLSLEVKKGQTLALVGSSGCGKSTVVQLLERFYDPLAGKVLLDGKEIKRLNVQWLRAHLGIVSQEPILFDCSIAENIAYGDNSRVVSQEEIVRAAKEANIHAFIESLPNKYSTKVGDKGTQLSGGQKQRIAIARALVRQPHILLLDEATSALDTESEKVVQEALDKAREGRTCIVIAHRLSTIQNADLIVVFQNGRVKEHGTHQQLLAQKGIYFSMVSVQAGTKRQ

As for `COc1ccc2c(c1OC)CC[C@@H]2NCCCCc1cn(-c2ccc(F)cc2)c2ccccc12`, the values for the inhibition constant (Ki) in assay [1] and in assay [2] were 122 nM and 152 nM, respectively. Further, in assay [3], the Ratio Ki was determined as 0.8. For the same molecule, in assay [4], the EC50 was 1340 nM.
The corresponding values for `COc1ccc(CCN(C)CCCCc2cn(-c3ccc(F)cc3)c3ccccc23)cc1OC` are 337 nM, 346 nM, 0.97 and 1350 nM.
As to `COc1cccc(CCNCCCCc2cn(-c3ccc(F)cc3)c3ccccc23)c1`, the Ki in assay [1] worked out at 151 nM; in assay [2] it was 580 nM. In addition, the Ratio Ki in assay [3] is 0.26. The concentration for a half-maximal effect (EC50) in assay [4] was 7200 nM.
The corresponding values for `COc1cccc(CNCCCCc2cn(-c3ccc(F)cc3)c3ccccc23)c1` are 544 nM, 227 nM, 2.4 and 2950 nM.
The corresponding values for `CCN(CCCCc1cn(-c2ccc(F)cc2)c2ccccc12)[C@@H]1CCc2c1ccc(OC)c2OC` are 126 nM, 35.2 nM, 3.58 and 1740 nM.
Turning to `CCN(CCCCc1cn(-c2ccc(F)cc2)c2ccccc12)Cc1cccc(OC)c1`, the inhibitory constant (Ki) in assay [1] worked out at 2.44 nM; in assay [2] it was 91 nM. The Ratio Ki in assay [3] was found to be 0.03. Further, in assay [4], the concentration giving a half-maximal response (EC50) was 4580 nM.
On the same counts, the results for `COc1ccc2c(c1OC)CC[C@H]2NCCCCc1cn(-c2ccc(F)cc2)c2ccccc12` are 175 nM, 252 nM, 0.69 and 3450 nM.
As to `COc1ccc2c(c1OC)CCC2NCCCCc1cn(-c2ccc(F)cc2)c2ccccc12` (racemic), the Ki in assay [1] came out at 215 nM; in assay [2], 115 nM. Also, in assay [3], the Ratio Ki was determined as 1.87. For the same molecule, the concentration giving a half-maximal response (EC50) in assay [4] was 870 nM.
On the same counts, the results for `COc1ccc(CNCCCCc2cn(-c3ccc(F)cc3)c3ccccc23)cc1` are 129 nM, 231 nM, 0.56 and 7660 nM.
In the case of `CCN(CCCCc1cn(-c2ccc(F)cc2)c2ccccc12)Cc1ccc(OC)cc1`, in assay [2], the Ki came to 69.8 nM. Moreover, the EC50 in assay [4] was 4680 nM.
For the molecule `COc1ccc(CNCCCCc2cn(-c3ccc(F)cc3)c3ccccc23)cc1OC`, the inhibition constant (Ki) is 2700 nM in assay [1] and 169 nM in assay [2]. For the same molecule, the Ratio Ki in assay [3] was found to be 16. Also, the EC50 in assay [4] is 1040 nM.
Turning to `COc1cccc(CCN(C)CCCCc2cn(-c3ccc(F)cc3)c3ccccc23)c1`, the values for the inhibitory constant (Ki) in assay [1] and in assay [2] were 17.5 nM and 111 nM, respectively. Also, in assay [3], the Ratio Ki stood at 0.16. The EC50 in assay [4] is 6570 nM.
On to `COc1cc2c(cc1OC)CN(CCCCc1cn(-c3ccc(F)cc3)c3ccccc13)CC2`, for which, in assay [2], the Ki came to 5.34 nM. The Ratio Ki in assay [3] stood at 260. Moreover, the EC50 in assay [4] is 210 nM.
For `CCN(CCCCc1cn(-c2ccc(F)cc2)c2ccccc12)Cc1ccc(OC)c(OC)c1`, the inhibition constant Ki stood at 18.9 nM in assay [1] and 97.1 nM in assay [2]. In addition, the Ratio Ki in assay [3] came to 0.19. Besides, in assay [4], the concentration for a half-maximal effect (EC50) was 1790 nM. Besides, in assay [5], the inhibition was found to be 85%.
In the case of `CCN(CCCCc1cn(-c2ccc(F)cc2)c2ccccc12)C1CCc2c1ccc(OC)c2OC` (racemic), the inhibition constant Ki in assay [1] came out at 59.2 nM; in assay [2], 27.6 nM. The Ratio Ki in assay [3] is 2.14. Moreover, the EC50 in assay [4] is 960 nM.
Take `COc1ccc(CCN(C)CCCCc2cn(-c3ccc(F)cc3)c3ccccc23)cc1`: the figures for the inhibition constant (Ki) in assay [1] and in assay [2] were 67.4 nM and 334 nM, respectively. In assay [3], the Ratio Ki is 0.2. In assay [4], the EC50 is 4490 nM.
The corresponding values for `CCN(CCCCc1cn(-c2ccc(F)cc2)c2ccccc12)[C@H]1CCc2c1ccc(OC)c2OC` are 50.8 nM, 19 nM, 2.67 and 700 nM.
With `COc1ccc(CCNCCCCc2cn(-c3ccc(F)cc3)c3ccccc23)cc1OC`, the inhibition constant (Ki) in assay [1] was found to be 939 nM; in assay [2], 2100 nM. For the same molecule, in assay [3], the Ratio Ki came out at 0.45. Moreover, the EC50 in assay [4] is 1120 nM.
The corresponding values for `COc1ccc(CCNCCCCc2cn(-c3ccc(F)cc3)c3ccccc23)cc1` are 431 nM, 1400 nM, 0.3 and 2850 nM.
With `COc1cc2c(cc1OC)CN(CC/C=C1\CCCc3c(OC)cccc31)CC2`, in assay [4], the EC50 is 820 nM.
